Counter-ions that a name gives are not always drawn. ± gives the standard deviation of the averaged measurements.
Test system: SW872
Test: relative viability vs DMSO control (72 h) (fraction); higher = more viable cells
Summary of the method: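 Sarcoma cell lines were seeded in 384-well plates at densities set to reach 80–90% confluence. After 24 h, 2.5 µl of serially diluted compound was added (source plates 10 mM to 0.0002 mM), and plates were held 72 h at 37 °C, 5% CO2, with 0.1% DMSO vehicle and a 5 µM positive control. Relative viability came from ATPLite readings as percent growth, averaged over up to triplicate wells. Data were rescaled so full viability equals 1 and none equals 0.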

| SMILES | relative viability (0.00017 µM) | relative viability (0.00051 µM) | relative viability (0.00152 µM) | relative viability (0.00457 µM) | relative viability (0.01372 µM) | relative viability (0.04115 µM) | relative viability (0.1235 µM) | relative viability (0.3704 µM) | relative viability (1.111 µM) | relative viability (3.333 µM) | relative viability (10 µM) |
| --- | --- | --- | --- | --- | --- | --- | --- | --- | --- | --- | --- |
| O=C(Nc1cnn2ccc(N3CCC[C@@H]3c3cc(F)ccc3F)nc12)N1CC[C@H](O)C1 [Larotrectinib] | 1.09 ± 0.022 | 1.12 ± 0.052 | 1.09 ± 0.072 | 1.08 ± 0.049 | 1.05 ± 0.11 | 0.99 ± 0.076 | 1.06 ± 0.095 | 1.06 ± 0.078 | 1.03 ± 0.065 | 1.03 ± 0.056 | 0.986 ± 0.044 |
| C[C@@H]1COCCN1c1cc(-c2ccnn2C)c2ccnc(-c3ccn[nH]3)c2n1 | 0.994 ± 0.054 | 1.01 ± 0.018 | 1.01 ± 0.014 | 1.04 ± 0.037 | 0.953 ± 0.043 | 0.867 ± 0.013 | 0.714 ± 0.047 | 0.452 ± 0.043 | 0.282 ± 0.012 | 0.229 ± 0.011 | 0.197 ± 0.0092 |
| CC(C)N1CCN(Cc2cnc(-c3cc(-c4cccc5[nH]ccc45)cc4[nH]ncc34)o2)CC1 [Nemiralisib] | 0.975 ± 0.035 | 0.982 ± 0.036 | 0.945 ± 0.043 | 0.945 ± 0.018 | 0.916 ± 0.033 | 0.949 ± 0.042 | 0.952 ± 0.018 | 0.896 ± 0.014 | 0.819 ± 0.032 | 0.622 ± 0.043 | 0.448 ± 0.017 |
| COc1cccc2c1C(=O)c1c(O)c3c(c(O)c1C2=O)C[C@@](O)(C(=O)CO)C[C@@H]3O[C@H]1C[C@H](N)[C@H](O)[C@H](C)O1 [Doxorubicin Hydrochloride] | 1.04 ± 0.021 | 1.05 ± 0.046 | 1.04 ± 0.031 | 1.08 ± 0.036 | 1.06 ± 0.018 | 0.961 ± 0.024 | 0.527 ± 0.051 | 0.203 ± 0.011 | 0.172 ± 0.014 | 0.213 ± 0.005 | 0.175 ± 0.0045 |
| Nc1cc(C(F)(F)F)c(-c2cc(N3CCOCC3)nc(N3CCOCC3)n2)cn1 [Buparlisib] | 0.994 ± 0.037 | 0.96 ± 0.046 | 0.995 ± 0.031 | 0.958 ± 0.019 | 0.964 ± 0.025 | 0.946 ± 0.055 | 0.901 ± 0.016 | 0.765 ± 0.035 | 0.543 ± 0.021 | 0.249 ± 0.014 | 0.158 ± 0.0092 |
| Cc1cc(Nc2ncnc3ccc(NC4=NC(C)(C)CO4)cc23)ccc1Oc1ccn2ncnc2c1 [Tucatinib] | 1.07 ± 0.017 | 1.08 ± 0.04 | 1.08 ± 0.016 | 1.09 ± 0.037 | 1.07 ± 0.051 | 1.08 ± 0.011 | 1.08 ± 0.017 | 1.04 ± 0.035 | 1.06 ± 0.04 | 1.03 ± 0.045 | 0.994 ± 0.038 |
| Cc1nc(-c2cn3c(n2)-c2ccc(-c4cnn(C(C)(C)C(N)=O)c4)cc2OCC3)n(C(C)C)n1 [Taselisib] | 1 ± 0.044 | 0.996 ± 0.03 | 1.02 ± 0.021 | 0.9808 ± 0.006 | 0.93 ± 0.061 | 0.88 ± 0.017 | 0.758 ± 0.029 | 0.643 ± 0.012 | 0.504 ± 0.015 | 0.381 ± 0.015 | 0.284 ± 0.018 |
| CN1CCC(COc2cnc(-c3cccc(Cn4nc(-c5cccc(C#N)c5)ccc4=O)c3)nc2)CC1 [Tepotinib] | 1.057 ± 0.008 | 1.07 ± 0.02 | 1.05 ± 0.037 | 1.04 ± 0.022 | 1.03 ± 0.038 | 1.01 ± 0.022 | 1.04 ± 0.016 | 1.02 ± 0.043 | 0.999 ± 0.019 | 0.972 ± 0.039 | 0.918 ± 0.033 |
| CNC(=O)c1cc(Oc2ccc(NC(=O)Nc3ccc(Cl)c(C(F)(F)F)c3)c(F)c2)ccn1 [Regorafenib] | 1.11 ± 0.07 | 1.12 ± 0.039 | 1.12 ± 0.034 | 1.14 ± 0.025 | 1.14 ± 0.017 | 1.119 ± 0.011 | 1.11 ± 0.013 | 1.07 ± 0.061 | 0.96 ± 0.027 | 0.824 ± 0.058 | 0.662 ± 0.027 |
| CCCS(=O)(=O)Nc1ccc(F)c(C(=O)c2c[nH]c3ncc(-c4ccc(Cl)cc4)cc23)c1F [Vemurafenib] | 1.05 ± 0.096 | 1.07 ± 0.099 | 1.08 ± 0.074 | 1.07 ± 0.067 | 1.07 ± 0.08 | 1.02 ± 0.033 | 0.863 ± 0.059 | 0.706 ± 0.063 | 0.642 ± 0.058 | 0.528 ± 0.034 | 0.342 ± 0.015 |
| COc1c(OCCCN2CCOCC2)ccc2c1N=C(NC(=O)c1cnc(N)nc1)N1CCN=C21 [Copanlisib] | 1.07 ± 0.03 | 1.02 ± 0.049 | 1.02 ± 0.064 | 0.817 ± 0.059 | 0.689 ± 0.037 | 0.599 ± 0.08 | 0.425 ± 0.033 | 0.284 ± 0.0047 | 0.193 ± 0.013 | 0.16 ± 0.006 | 0.149 ± 0.015 |
| CC(=O)Nc1cccc(-n2c(=O)n(C3CC3)c(=O)c3c(Nc4ccc(I)cc4F)n(C)c(=O)c(C)c32)c1 [Trametinib] | 1.11 ± 0.046 | 1.05 ± 0.055 | 0.856 ± 0.059 | 0.674 ± 0.046 | 0.597 ± 0.0061 | 0.607 ± 0.034 | 0.593 ± 0.008 | 0.593 ± 0.022 | 0.562 ± 0.015 | 0.549 ± 0.031 | 0.564 ± 0.014 |
| COCc1c(-c2cc3cc(C)cc(OC)c3s2)c2c(N)ncnn2c1CN1CCNC(=O)C1 [Rogaratinib] | 1.08 ± 0.043 | 1.07 ± 0.012 | 1.06 ± 0.045 | 1.03 ± 0.013 | 1.003 ± 0.0078 | 1.03 ± 0.011 | 1.03 ± 0.026 | 0.992 ± 0.028 | 0.952 ± 0.02 | 0.815 ± 0.051 | 0.513 ± 0.0093 |
| COc1cc2/c(=N/c3ccc(Br)cc3F)nc[nH]c2cc1OCC1CCN(C)CC1 [Vandetanib] | 1.02 ± 0.046 | 1.01 ± 0.052 | 1 ± 0.036 | 1.02 ± 0.041 | 1.03 ± 0.02 | 0.987 ± 0.051 | 0.964 ± 0.0059 | 0.91 ± 0.025 | 0.802 ± 0.03 | 0.5804 ± 0.0048 | 0.00997 ± 0.0034 |
